Measured values reported in patent US20090285773A1, “Hepatitis C Virus Inhibitors” (Bristol-Myers Squibb Company, priority 2008, published 2009).

Target: T1, HCV NS3/4A protease complex, H77 strain (1a genotype) (Hepatitis C virus genotype 1a, UniProt P27958, C1454S/C1711G)
T1 construct: DNA encoding the recombinant HCV NS3/4A protease complex (amino acids 1027 to 1711) for these strains; His tag (inferred from pET21b vector and Ni-NTA purification); made in house; host or cells: Escherichia coli BL21 (DE3)
Test: FRET peptide assay, HCV NS3/4A protease complex, H77 strain
Format: biochemical
Source text: HCV NS3 protease complexes, derived from the BMS strain, H77 strain or J4L6S strain, were generated, as described below. These purified recombinant proteins were generated for use in a homogeneous assay (see below) to provide an indication of how effective compounds of the present disclosure would be in inhibiting HCV NS3 proteolytic activity.
Serum from an HCV-infected patient was obtained from Dr. T. Wright, San Francisco Hospital. An engineered full-length cDNA (compliment deoxyribonucleic acid) template of the HCV genome (BMS strain) was constructed from DNA fragments obtained by reverse transcription-PCR (RT-PCR) of serum RNA (ribonucleic acid) and using primers selected on the basis of homology between other genotype 1a strains. From the determination of the entire genome sequence, a genotype 1a was assigned to the HCV isolate according to the classification of Simmonds et al. (See P Simmonds, K A Rose, S Graham, S W Chan, F McOmish, B C Dow, E A Follett, P L Yap and H Marsden, J. Clin. Microbiol., 31(6), 1493-1503 (1993)). […]

T1 sequence (P27958 1027-1711 C1454S/C1711G, one chain of several): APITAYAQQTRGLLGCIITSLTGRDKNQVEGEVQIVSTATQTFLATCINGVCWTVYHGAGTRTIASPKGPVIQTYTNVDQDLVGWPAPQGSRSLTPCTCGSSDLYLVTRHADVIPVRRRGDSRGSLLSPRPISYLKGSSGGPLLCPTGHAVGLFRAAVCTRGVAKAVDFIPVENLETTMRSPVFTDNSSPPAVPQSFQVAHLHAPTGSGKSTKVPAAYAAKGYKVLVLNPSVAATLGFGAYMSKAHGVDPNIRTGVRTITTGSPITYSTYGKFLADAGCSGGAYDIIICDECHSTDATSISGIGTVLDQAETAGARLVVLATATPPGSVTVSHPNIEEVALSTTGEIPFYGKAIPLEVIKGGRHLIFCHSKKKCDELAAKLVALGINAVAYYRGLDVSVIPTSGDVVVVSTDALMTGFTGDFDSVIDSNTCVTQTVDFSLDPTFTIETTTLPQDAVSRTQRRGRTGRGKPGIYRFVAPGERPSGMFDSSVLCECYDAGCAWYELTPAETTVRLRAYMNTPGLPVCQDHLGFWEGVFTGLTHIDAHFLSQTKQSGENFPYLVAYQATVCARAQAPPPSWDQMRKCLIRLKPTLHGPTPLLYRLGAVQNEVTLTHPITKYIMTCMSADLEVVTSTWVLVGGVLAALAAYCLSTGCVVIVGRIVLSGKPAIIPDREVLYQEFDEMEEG

## COc1ccc2c(O[C@@H]3C[C@H]4C(=O)N[C@]5(C(=O)NS(=O)(=O)C6CC6)C[C@H]5/C=C\CCCCC[C@H](Nc5ccc(OC)nc5)C(=O)N4C3)nccc2c1 (single isomer, unassigned) [Compound 1]
  IC50: 1.9 nM
